# From patent US20210084902A1, “FUNGICIDAL MIXTURE COMPRISING SUBSTITUTED 3-PHENYL-5-(TRIFLUOROMETHYL)-1,2,4-OXADIAZOLES” (BASF SE, priority 2017, published 2021)
# Where two headings read alike, the source gives them in different places.
# Experiments:
# Format in all cases: cell-based
# [1] = system: Pyricularia oryzae; experiment: microbe, parasite or virus in culture; conditions: for Observed efficacy: single compound
# [2] = system: Septoria tritici; experiment: Fungicidal activity against Septoria tritici, micro titer plate (MTP) test; conditions: for inhibition of growth at […] / Observed efficacy / inhibition of growth at 1 ppm / inhibition of growth at 4 ppm: Table V.4, component B alone
# [3] = system: Colletotrichum orbiculare; experiment: Fungicidal activity against Colletotrichum orbiculare in the microtiterplate test
# [4] = system: Botrytis cinerea; experiment: Fungicidal activity against Botrytis cinerea, micro titer plate (MTP) test; conditions: component B alone; for inhibition of growth at 1 ppm / inhibition of growth at […]: Botrytis cinerea, 168 h, read-out: Observed efficacy
# [5] = Pyricularia oryzae, 168 h, read-out: Observed efficacy
# [6] = Zymoseptoria tritici, 168 h, 0.063 ppm, read-out: Observed efficacy
# [7] = Colletotrichum orbiculare, 0.25 ppm, read-out: Observed efficacy
# [8] = Colletotrichum orbiculare, 0.063 ppm, read-out: Observed efficacy
# [9] = Colletotrichum orbiculare, 1 ppm, read-out: Observed efficacy
# [10] = Zymoseptoria tritici, 168 h, 0.25 ppm, read-out: Observed efficacy
# [11] = Zymoseptoria tritici, 168 h, 1 ppm, read-out: Observed efficacy
# [12] = Colletotrichum orbiculare, read-out: Observed efficacy
# [13] = Colletotrichum orbiculare, 0.016 ppm, read-out: Observed efficacy
# [14] = Zymoseptoria tritici, 168 h, 4 ppm, read-out: Observed efficacy
# [15] = Zymoseptoria tritici, 168 h, 0.016 ppm, read-out: Observed efficacy
molecule,measurement,setting,value
CO/N=C(/C(=O)OC)c1ccccc1COc1ccccc1C [Kresoximmethyl],inhibition of growth at 1 ppm,[1]; [5],58%
same,inhibition of growth at […],[2]; [6],41%
"OC(Cc1ccccc1Cl)(Cn1nc[nH]c1=S)C1(Cl)CC1 (stereo not drawn) [Prothioconazol, prothioconazole]",inhibition of growth at […],[3]; [7],14%
COc1cc(C)c(C(=O)c2c(OC)ccc(Br)c2C)c(OC)c1OC [Metrafenon],Observed efficacy,[1]; 4 ppm,5
same,Observed efficacy,[1]; 16 ppm,21
same,Observed efficacy,[2]; 4 ppm,1
same,Observed efficacy,[2]; 16 ppm,1
"N#Cc1sc2c(=O)c3ccccc3c(=O)c=2sc1C#N [Dithianon, dithianon]",inhibition of growth at […],[3]; [8],21%
"Cn1cc(C(=O)Nc2cccc3c2[C@@H]2CC[C@H]3C2=C(Cl)Cl)c(C(F)F)n1 (racemic) [Benzovindiflupyr, benzovindiflupyr]",Observed efficacy,[3]; 0.004 ppm,2
"CCC(=O)OCOc1c(OC)ccnc1C(=O)NC1COC(=O)[C@H](Cc2ccccc2)[C@@H](OC(=O)C(C)C)[C@H](C)OC1=O (stereo partly drawn) [A.2.5, [(6S,7R,8R)-8-benzyl-3-[[4-methoxy-3-(propanoyloxymethoxy)pyridine-2-carbonyl]amino]-6-methyl-4,9-dioxo-1,5-dioxonan-7-yl] 2-methylpropanoate]",inhibition of growth at 1 ppm,[4]; 1 ppm,6%
same,inhibition of growth at […],[3]; [7],72%
same,inhibition of growth at […],[2]; [6],33%
"CC1CC(C)(C)c2cccc(NC(=O)c3cccnc3C(F)F)c21 (stereo not drawn) [A.3.32, 2-(difluoromethyl)-N-(1,1,3-trimethyl-indan-4-yl)pyridine-3-carboxamide]",inhibition of growth at […],[4]; 0.25 ppm,32%
same,inhibition of growth at 1 ppm,[3]; [9],15%
same,inhibition of growth at […],[2]; [10],22%
same,inhibition of growth at 1 ppm,[2]; [11],70%
"Cc1nn(C)cc1C(=O)Nc1cccc2c1C(C)CC2(C)C (stereo not drawn) [A.3.24, 1,3-dimethyl-N-(1,1,3-trimethylindan-4-yl)pyrazole-4-carboxamide]",inhibition of growth at […],[4]; 0.25 ppm,41%
same,inhibition of growth at […],[3]; [7],3%
same,inhibition of growth at 1 ppm,[3]; [9],12%
same,inhibition of growth at […],[2]; [10],25%
same,inhibition of growth at 1 ppm,[2]; [11],76%
"CO/C=C(/C(=O)OC)c1ccccc1Oc1cc(Oc2ccccc2C#N)ncn1 [Azoxystrobin, azoxystrobin]",Observed efficacy,[3]; 0.004 ppm,1
"CC1(C)CCC(=Cc2ccc(Cl)cc2)C1(O)Cn1cncn1 (stereo not drawn) [Triticonazol, triticonazole]",inhibition of growth at 1 ppm,[3]; [9],11%
"CC1CC(C)(C)c2c(F)ccc(NC(=O)c3cn(C)nc3C(F)F)c21 (stereo not drawn) [Fluindapyr, 3-(difluoromethyl)-N-(7-fluoro-1,1,3-trimethyl-indan-4-yl)-1-methyl-pyrazole-4-carboxamide]",inhibition of growth at […],[4]; 0.25 ppm,21%
same,inhibition of growth at 1 ppm,[3]; [9],12%
same,inhibition of growth at […],[2]; [10],21%
same,inhibition of growth at 1 ppm,[2]; [11],58%
"CC(C1CC1)C(O)(Cn1cncn1)c1ccc(Cl)cc1 (stereo not drawn) [Cyproconazol, cyproconazole]",inhibition of growth at 4 ppm,[3]; [12],4%
"CC(C)c1ccc(Cl)cc1CN(C(=O)c1c(C(F)F)nn(C)c1F)C1CC1 [Isoflucypram, N-[(5-chloro-2-isopropyl-phenyl)methyl]-N-cyclopropyl-3-(difluoromethyl)-5 fluoro-1-methyl-pyrazole-4-carboxamide]",inhibition of growth at […],[4]; 0.25 ppm,53%
same,inhibition of growth at 1 ppm,[1]; [5],11%
same,inhibition of growth at […],[2]; [10],61%
same,inhibition of growth at 1 ppm,[2]; [11],62%
"O=C(Cc1ccccc1)N/C(=N\OCC1CC1)c1c(C(F)(F)F)ccc(F)c1F [Cyflufenamid, cyflufenamid]",inhibition of growth at 16 ppm,"[3]; Colletotrichum orbiculare, 16 ppm, read-out: Observed efficacy",11%
"CC(C)(C)C(O)(CCc1ccc(Cl)cc1)Cn1cncn1 (stereo not drawn) [Tebuconazol, tebuconazole]",inhibition of growth at […],[3]; [8],2%
same,inhibition of growth at […],[3]; [7],14%
same,inhibition of growth at 0.0663 ppm,[1]; [5],4%
"CCCCCOC(=O)Nc1cccc(CO/N=C(/c2ccccc2)c2nnnn2C)n1 [K.1.42, pentyl N-[6-[[(Z)-[(1-methyltetrazol-5-yl)-phenyl-methylene]amino]oxymethyl]-2-pyridyl]carba-mate]",Observed efficacy,[3]; 1 ppm,21
same,Observed efficacy,[1]; 1 ppm,9
"COC(=O)Nc1nc2ccccc2[nH]1 [Carbendazim, carbendazim]",inhibition of growth at […],[3]; [8],60%
"CNC(=O)/C(=N/OC)c1ccccc1COc1cc(C)ccc1C [Dimoxystrobin, dimoxystrobin]",Observed efficacy,[4]; 1 ppm,14%
same,Observed efficacy,[3]; 1 ppm,71
"CCCCCCCCc1c(CC)nc2ncnn2c1N [Ametoctradin, ametoctradin]",Observed efficacy,[3]; 63 ppm,14
same,Observed efficacy,[1]; 16 ppm,8
same,Observed efficacy,[1]; 63 ppm,13
"CCCC1COC(Cn2cncn2)(c2ccc(Cl)cc2Cl)O1 (stereo not drawn) [Propiconazol, propiconazole]",inhibition of growth at […],[3]; [13],3%
same,inhibition of growth at […],[3]; [8],3%
same,inhibition of growth at […],[3]; [7],15%
same,inhibition of growth at […],[2]; [6],17%
"Cc1cccc(-n2nnn(C)c2=O)c1COc1ccn(-c2ccc(Cl)cc2)n1 [A.1.25, 1-[2-[[1-(4-chlorophenyl)pyrazol-3-yl]oxymethyl]-3-methyl-phenyl]-4-methyl-tetrazol-5-one]",inhibition of growth at 0.004 ppm,[1]; [5],4%
same,inhibition of growth at 0.004 ppm,"[2]; Zymoseptoria tritici, 168 h, read-out: Observed efficacy",3%
"CC[C@H]1CC(C)(C)c2cccc(NC(=O)c3cccnc3C(F)F)c21 [A.3.34, 2-(difluoromethyl)-N-[(3S)3-ethyl-1,1-dimethyl-indan-4-yl]pyridine-3-carboxamide]",inhibition of growth at […],[4]; 0.25 ppm,1%
same,inhibition of growth at 1 ppm,[4]; 1 ppm,51%
same,inhibition of growth at 1 ppm,[3]; [9],14%
same,inhibition of growth at […],[2]; [10],17%
"CCN(C)C=Nc1cc(Br)c(OC2Cc3ccccc3C2)nc1C [K.1.30, N′-(5-bromo-6-indan-2-yloxy-2-methyl-3-pyridyl)-N-ethyl-N-methyl-formamidine]",inhibition of growth at 1 ppm,[2]; [11],0%
same,inhibition of growth at 4 ppm,[2]; [14],0%
"CCN(C)C=Nc1cc(Br)c(OC(C)c2cc(F)cc(F)c2)nc1C (stereo not drawn) [K.1.31, N′-[5-bromo-6-[1-(3,5-difluorophenyl)ethoxy]-2-methyl-3-pyridyl]-N-ethyl-N-methyl-formamidine]",inhibition of growth at 1 ppm,[4]; 1 ppm,53%
same,inhibition of growth at 1 ppm,[2]; [11],5%
same,inhibition of growth at 4 ppm,[2]; [14],62%
mancozeb,Observed efficacy,[3]; 1 ppm,24
same,Observed efficacy,[2]; 1 ppm,9
"O=c1c2cc(F)ccc2nc(-n2cncn2)n1-c1ccc(Cl)cc1Cl [Fluquinconazol, fluquinconazole]",inhibition of growth at […],[3]; [8],3%
same,inhibition of growth at 1 ppm,[3]; [9],12%
"CC1(C)CCC(Cc2ccc(Cl)cc2)C1(O)Cn1cncn1 (stereo not drawn) [Metconazol, metconazole]",inhibition of growth at […],[3]; [8],11%
"CON=C(C(=O)OC)c1ccccc1CON=C(C)c1cccc(C(F)(F)F)c1 [Trifloxystrobin, trifloxystrobin]",inhibition of growth at […],[4]; 0.063 ppm,3%
same,inhibition of growth at […],[3]; [13],9%
same,inhibition of growth at […],[2]; [15],43%
"CC(C)CC(C)c1sccc1NC(=O)c1cn(C)nc1C(F)(F)F (stereo not drawn) [Penthiopyrad, penthiopyrad]",inhibition of growth at […],[3]; [7],8%
same,inhibition of growth at […],[2]; [6],5%
same,inhibition of growth at […],[2]; [10],28%
"COc1cc(C)c(C(=O)c2c(OC)ncc(Cl)c2C)c(OC)c1OC [Pyriofenon, pyriofenone]",Observed efficacy,[4]; 1 ppm,2%
"COC(=O)[C@@H](C)N(C(=O)Cc1ccccc1)c1c(C)cccc1C [Benalaxyl-M, benalaxyl-M]",Observed efficacy,[4]; 4 ppm,7%
same,Observed efficacy,[3]; 1 ppm,2
same,Observed efficacy,[1]; 1 ppm,3
same,Observed efficacy,[1]; 4 ppm,12
"O=C(NCCc1ncc(C(F)(F)F)cc1Cl)c1ccccc1C(F)(F)F [Fluopyram, fluopyram]",inhibition of growth at […],[3]; [7],15%
same,inhibition of growth at […],[2]; [6],13%
same,inhibition of growth at […],[2]; [10],33%
"O=C(Nc1ccccc1-c1ccc(Cl)cc1)c1cccnc1Cl [Boscalid, boscalid]",inhibition of growth at […],[3]; [7],0%
same,inhibition of growth at 1 ppm,[3]; [9],0%
same,inhibition of growth at 4 ppm,[1]; [5],5%
same,inhibition of growth at 1 ppm,[2]; [11],61%
"COc1cc(C)c(C(=O)c2c(OC)ccc(Br)c2C)c(OC)c1OC [Metrafenone, metrafenone]",inhibition of growth at 4 ppm,[3]; [12],14%
"CCCOCC(C)Oc1nc(C)c(N=CN(C)CC)cc1Br (stereo not drawn) [K.1.54, N′-[5-bromo-2-methyl-6-(1-methyl-2-propoxy-ethoxy)-3-pyridyl]-N-ethyl-N-methyl-formamidine]",inhibition of growth at 1 ppm,[1]; [5],19%
same,inhibition of growth at 1 ppm,[2]; [11],3%
"COC(=O)C(C)N(C(=O)Cc1ccccc1)c1c(C)cccc1C (stereo not drawn) [Benalaxyl, benalaxyl]",inhibition of growth at 4 ppm,[3]; [12],13%
same,inhibition of growth at 1 ppm,[1]; [5],2%
same,inhibition of growth at 4 ppm,[1]; [5],8%
"CO/N=C(/C(=O)OC)c1ccccc1COc1ccccc1C [Kresoxim-methyl, kresoxim-methyl]",inhibition of growth at […],[3]; [7],45%
"Cn1cc(C(=O)Nc2ccccc2-c2cc(F)c(F)c(F)c2)c(C(F)F)n1 [Fluxapyroxad, fluxapyroxad]",Observed efficacy,[3]; 0.004 ppm,1
"COc1ccnc(C(=O)NC2COC(=O)[C@H](Cc3ccccc3)[C@@H](OC(=O)C(C)C)[C@H](C)OC2=O)c1O (stereo partly drawn) [A.2.3, [(6S,7R,8R)-8-benzyl-3-[(3-hydroxy-4-methoxy-pyridine-2-carbonyl)amino]-6-methyl-4,9-dioxo-1,5-dioxonan-7-yl] 2-methylpropanoate]",inhibition of growth at […],[4]; 0.25 ppm,0%
same,inhibition of growth at 1 ppm,[4]; 1 ppm,11%
same,inhibition of growth at […],[3]; [8],47%
same,inhibition of growth at […],[3]; [7],77%
same,inhibition of growth at […],[2]; [15],52%
"CCN(C)C=Nc1cc(C)c(Oc2nc(Cc3ccc(Cl)cc3)ns2)cc1C [K.1.29, N′-[4-[[3-[(4-chorophenyl)methyl]-1,2,4-thiadiazo-5-yl]oxy]-2,5-dimethyl-phenyl]-N-ethyl-N-methyl-formamidine]",Observed efficacy,[2]; 4 ppm,6
